Measurements taken from ChEMBL document CHEMBL3797051 (Medchemcomm, 2016).

Assays:
Histone deacetylase 8 [1] = target: T1, Histone deacetylase 8 (Homo sapiens, UniProt Q9BY41); test: Inhibition of recombinant human HDAC8 expressed in Escherichia coli assessed as hydrolase activity using fluorogenic AC-LGK-tfa-AMC as substrate measured after 60 mins by fluorescence analysis
T1 sequence (Q9BY41 whole entry): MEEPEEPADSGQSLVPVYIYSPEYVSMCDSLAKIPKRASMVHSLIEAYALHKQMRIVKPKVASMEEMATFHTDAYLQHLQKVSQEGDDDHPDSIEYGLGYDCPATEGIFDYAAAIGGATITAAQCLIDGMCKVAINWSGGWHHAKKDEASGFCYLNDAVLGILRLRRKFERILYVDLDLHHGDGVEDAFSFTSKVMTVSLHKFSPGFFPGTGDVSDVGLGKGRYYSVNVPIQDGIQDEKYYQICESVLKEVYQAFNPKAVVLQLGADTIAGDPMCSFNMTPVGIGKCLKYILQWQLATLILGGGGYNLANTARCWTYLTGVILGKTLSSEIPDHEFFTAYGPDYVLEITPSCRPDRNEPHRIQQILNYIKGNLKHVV

Histone deacetylase 8 [2] = target: T1, Histone deacetylase 8; test: Inhibition of recombinant human HDAC8 expressed in Escherichia coli assessed as inhibition constant ki,1 using fluorogenic AC-LGK-tfa-AMC as substrate measured after 60 mins by fluorescence analysis
[3] = target: T2, Protein deacetylase HDAC6 (Homo sapiens, UniProt Q9UBN7); test: Inhibition of His-tagged recombinant human HDAC6 expressed in insect cells assessed as hydrolase activity using fluorogenic AC-LGK-ac-AMC as substrate measured after 60 mins by fluorescence analysis
T2 sequence (Q9UBN7 whole entry): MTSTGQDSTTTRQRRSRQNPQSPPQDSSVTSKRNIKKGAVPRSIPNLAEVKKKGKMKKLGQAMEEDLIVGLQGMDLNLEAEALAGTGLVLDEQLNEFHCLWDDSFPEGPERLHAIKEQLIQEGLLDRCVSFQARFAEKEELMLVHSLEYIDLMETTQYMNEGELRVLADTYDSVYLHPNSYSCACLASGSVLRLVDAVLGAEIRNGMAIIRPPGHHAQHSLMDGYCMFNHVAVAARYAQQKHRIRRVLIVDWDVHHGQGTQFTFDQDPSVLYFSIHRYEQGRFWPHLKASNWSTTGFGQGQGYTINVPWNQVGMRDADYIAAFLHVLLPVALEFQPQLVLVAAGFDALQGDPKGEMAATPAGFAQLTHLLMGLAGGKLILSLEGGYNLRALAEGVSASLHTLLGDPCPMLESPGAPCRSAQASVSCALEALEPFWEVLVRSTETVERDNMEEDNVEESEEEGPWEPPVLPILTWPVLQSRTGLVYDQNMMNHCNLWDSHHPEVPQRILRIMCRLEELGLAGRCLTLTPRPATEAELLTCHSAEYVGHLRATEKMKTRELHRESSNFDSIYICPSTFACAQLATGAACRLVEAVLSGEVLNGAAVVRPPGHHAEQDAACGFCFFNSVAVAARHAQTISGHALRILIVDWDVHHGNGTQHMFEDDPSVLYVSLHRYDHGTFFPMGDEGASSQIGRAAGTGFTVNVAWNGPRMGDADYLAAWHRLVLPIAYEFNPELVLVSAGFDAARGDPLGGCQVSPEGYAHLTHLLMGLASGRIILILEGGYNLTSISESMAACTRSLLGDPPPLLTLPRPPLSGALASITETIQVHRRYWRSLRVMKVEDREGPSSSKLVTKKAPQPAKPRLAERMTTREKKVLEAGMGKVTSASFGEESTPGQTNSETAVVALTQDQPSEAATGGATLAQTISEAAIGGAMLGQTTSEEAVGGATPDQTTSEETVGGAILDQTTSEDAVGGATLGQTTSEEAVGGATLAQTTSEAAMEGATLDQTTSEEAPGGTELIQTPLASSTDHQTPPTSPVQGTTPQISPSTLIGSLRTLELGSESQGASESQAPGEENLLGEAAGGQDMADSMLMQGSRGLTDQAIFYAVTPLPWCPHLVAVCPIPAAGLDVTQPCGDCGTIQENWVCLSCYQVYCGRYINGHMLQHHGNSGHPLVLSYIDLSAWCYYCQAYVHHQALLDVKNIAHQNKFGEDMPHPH

Histone deacetylase 4 = Histone deacetylase 4 (Homo sapiens, UniProt P56524); test: Inhibition of N-terminal GST-tagged recombinant human HDAC4 assessed as hydrolase activity using fluorogenic […] as substrate measured after 60 mins by fluorescence analysis
Chain of Histone deacetylase 4 (P56524 whole entry): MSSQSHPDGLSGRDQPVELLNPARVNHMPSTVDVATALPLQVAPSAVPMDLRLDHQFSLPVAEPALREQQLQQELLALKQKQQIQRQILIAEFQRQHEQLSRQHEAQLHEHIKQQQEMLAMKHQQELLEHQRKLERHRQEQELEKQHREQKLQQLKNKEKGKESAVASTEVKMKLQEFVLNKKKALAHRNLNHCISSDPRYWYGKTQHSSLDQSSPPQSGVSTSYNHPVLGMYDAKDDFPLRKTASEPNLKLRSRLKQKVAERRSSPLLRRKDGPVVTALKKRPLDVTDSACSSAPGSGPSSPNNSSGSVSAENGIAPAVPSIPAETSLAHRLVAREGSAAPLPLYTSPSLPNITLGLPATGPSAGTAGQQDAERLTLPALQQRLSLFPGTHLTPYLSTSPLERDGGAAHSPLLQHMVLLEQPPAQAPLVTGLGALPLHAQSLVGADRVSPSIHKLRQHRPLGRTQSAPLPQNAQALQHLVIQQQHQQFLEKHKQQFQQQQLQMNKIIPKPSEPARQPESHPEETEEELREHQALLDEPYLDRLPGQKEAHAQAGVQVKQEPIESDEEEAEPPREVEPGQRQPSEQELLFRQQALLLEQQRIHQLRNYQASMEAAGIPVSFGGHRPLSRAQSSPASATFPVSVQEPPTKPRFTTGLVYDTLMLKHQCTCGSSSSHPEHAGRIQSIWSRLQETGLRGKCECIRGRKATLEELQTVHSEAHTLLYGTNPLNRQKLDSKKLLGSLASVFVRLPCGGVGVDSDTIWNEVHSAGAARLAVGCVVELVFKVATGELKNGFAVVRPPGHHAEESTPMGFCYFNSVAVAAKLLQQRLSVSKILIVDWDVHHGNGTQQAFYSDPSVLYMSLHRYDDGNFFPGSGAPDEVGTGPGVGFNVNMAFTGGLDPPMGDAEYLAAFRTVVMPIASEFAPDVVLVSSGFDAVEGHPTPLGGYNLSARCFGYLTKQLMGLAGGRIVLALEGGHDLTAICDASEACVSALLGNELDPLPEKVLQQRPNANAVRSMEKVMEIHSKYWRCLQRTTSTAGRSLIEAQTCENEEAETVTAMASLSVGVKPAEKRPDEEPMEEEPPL

- Ki (Histone deacetylase 8 [1]): 33 nM
- Ki (Histone deacetylase 8 [2]): 7300 nM
- Ki [3]: 4500 nM
- Ki (Histone deacetylase 4): 5.1 nM
Compound: O=C(CCCCCCC(=O)C(F)(F)F)Nc1ccccc1
